# Measurements published in PubChem BioAssay (NCI).
#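 Where inhibition never reached the appropriate level, the endpoint shown equals the highest concentration tested. Otherwise, values were interpolated linearly from a five-concentration, 48-hour dose response in 96-well plates. TGI: total growth inhibition.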
# Experiments:
# Assay in all cases: inhibition of tumour cell growth, NCI panel, 48 h
# [1] = tested on: UACC-257 melanoma
# [2] = tested on: MDA-MB-435
# [3] = tested on: U251 CNS
# [4] = tested on: MDA-MB-231 breast
# [5] = tested on: HCT-116 colon
# [6] = tested on: UACC-62 melanoma
# [7] = tested on: HOP-92 NSCLC
# [8] = tested on: MOLT-4 leukemia
# [9] = tested on: HCC-2998 colon
# [10] = tested on: 786-0 renal
# [11] = tested on: SF-268 CNS
# [12] = tested on: MDA-N
# [13] = tested on: T-47D breast
# [14] = tested on: ACHN renal
# [15] = tested on: NCI-H226 lung
# [16] = tested on: PC-3 prostate
# [17] = tested on: A498 renal
# [18] = tested on: HCT-15 colon
# [19] = tested on: SNB-75 CNS
# [20] = tested on: KM20L2 colon
Structure (SMILES),TGI [1] [µM],TGI [2] [µM],TGI [3] [µM],TGI [4] [µM],TGI [5] [µM],TGI [6] [µM],TGI [7] [µM],TGI [8] [µM],TGI [9] [µM],TGI [10] [µM],TGI [11] [µM],TGI [12] [µM],TGI [13] [µM],TGI [14] [µM],TGI [15] [µM],TGI [16] [µM],TGI [17] [µM],TGI [18] [µM],TGI [19] [µM],TGI [20] [µM]
CCc1c(N=[N+]=[N-])c2ccccc2oc1=O,> 100,> 100,> 100,> 100,> 100,> 100,> 100,> 100,> 100,> 100,> 100,> 100,> 100,> 100,> 100,> 100,> 100,> 100,> 100,–
O=c1oc2cc(O)ccc2c(O)c1C(c1ccc(/C=C/c2ccccc2)cc1)c1c(O)c2ccc(O)cc2oc1=O,> 100,> 100,> 100,> 100,> 100,> 100,> 100,64.1,> 100,> 100,> 100,> 100,> 100,> 100,> 100,> 100,> 100,> 100,> 100,–
COc1ccc(Cc2c3cc(OC)c(OC)cc3cc[n+]2C)cc1,> 58.4,–,> 73.1,–,> 24.8,> 50,58.7,> 100,> 32.8,> 29.7,> 27.5,–,–,> 49.9,> 51.9,–,> 100,> 52.8,34.6,24.3
COc1cc(/C=C(\C#N)C(=O)c2ccccc2)cc(OC)c1OC,> 100,–,> 100,–,> 100,> 100,> 100,> 100,> 100,> 100,> 100,–,–,> 100,> 100,–,–,> 100,> 100,> 100
O=[N+]([O-])C1=Cc2c(O)ccc(O)c2C2c3ccccc3NC12 (centres undefined),29.3,28.6,29.4,31.4,22.7,22.7,20.7,> 44.5,24.7,24.7,36.6,39.3,> 55.8,16,> 100,19,29.8,36.4,> 61.3,–
Nc1cc2c(C3OC(CO)C(O)C3O)[nH]nc2c(=S)[nH]1 (centres undefined),> 100,–,> 100,–,> 100,> 100,> 100,> 100,> 100,> 100,> 100,–,–,> 100,> 100,–,> 100,> 100,> 100,> 100
CSc1cnc2ccccc2c1Sc1cn(C)c2ccccc2c1=O,> 100,–,38.6,–,> 100,> 100,67,> 100,> 100,> 100,> 100,–,–,> 100,73.8,–,> 100,> 100,46.8,> 100
CC(=O)OCC1OC(NC(=S)Nn2c(-c3ccccc3)nc3ccccc3c2=O)C(OC(C)=O)C(OC(C)=O)C1OC(C)=O (centres undefined),> 100,> 100,> 100,> 100,> 100,> 100,> 100,> 100,> 100,> 100,> 100,> 100,60.2,> 100,> 100,> 100,> 100,> 100,> 100,–
C[C@H](O)CCC(=O)c1ccoc1,> 100,–,> 100,–,> 100,> 100,> 100,> 100,> 100,> 100,> 100,–,–,> 100,> 100,–,> 100,> 100,> 100,> 100
CCCCc1c2c([n+]([O-])c3c1CCCC3)CCCC2,> 100,–,> 100,–,> 100,–,–,> 100,> 100,> 100,> 100,–,–,43.1,> 100,–,–,> 100,–,> 100
CC(=O)OCC1OC(Sc2nc(-c3ccccc3)c(C#N)c(=O)n2C2OC(COC(C)=O)C(OC(C)=O)C(OC(C)=O)C2OC(C)=O)C(OC(C)=O)C(OC(C)=O)C1OC(C)=O (centres undefined),> 100,> 100,> 100,> 100,> 100,> 100,> 100,> 100,> 100,> 100,> 100,> 100,> 100,> 100,> 100,> 100,> 100,> 100,> 100,–
NS(=O)(=O)c1ccc(NCc2cccc3c(=O)c4ccc(Cl)cc4oc23)cc1,> 100,> 100,> 100,> 100,> 100,> 100,57,> 100,> 100,> 100,64.4,> 80.2,> 100,> 100,> 100,> 100,> 100,> 100,> 96.6,–
COc1ccc(Cc2nc3cc(C(F)(F)F)ccc3n2C[C@@H]2CCCN3CCCCC23)cc1 (some centres undefined),6.77,26.8,27.7,25.2,20.4,11.5,20.7,31.7,5.94,20.3,19,13.2,22.9,22.5,37,24,14.1,30.8,77.4,–
CC(=O)C1=C(C)N2C(=NC3=C(CCc4ccccc43)C2c2ccc(Cl)cc2)S1 (centres undefined),> 100,> 100,> 100,> 100,> 100,> 100,> 100,55.3,> 100,> 100,> 100,> 100,> 100,> 100,> 100,> 100,51,> 100,> 100,–
O=C(O)OC12CCCCCC1C(=O)C1CCCCC12 (centres undefined),> 100,–,> 100,–,> 100,> 100,–,> 100,–,> 100,> 100,–,–,> 100,> 100,–,–,> 100,> 100,> 100
CC(=O)O[C@H]1CC[C@@]2(C)C(=CC[C@@H]3[C@@H]2CC[C@]2(C)C(=O)/C(=C\c4ccccc4)C[C@@H]32)C1,> 100,> 100,> 100,> 100,> 100,> 100,> 100,> 100,> 100,> 100,> 100,> 100,> 100,> 100,> 100,> 100,> 100,> 100,> 100,–
COc1ccc2nc3cc(Cl)ccc3c(NCCCN(C)CCCNc3ccc4ncn5c6ccccc6c(=O)c3c45)c2c1,6.81,5.23,1.63,6.02,4.86,7.93,> 16.9,> 5.72,0.423,8.7,12.6,4.77,> 17.3,3.93,1.98,5.34,6.52,> 9.4,7.55,–
COc1cc(CCNC2=CC(=O)c3ncccc3C2=O)ccc1O,4.28,2.84,19.6,6.24,> 34.4,3.8,42.7,22.8,16.8,18.1,47.4,2.72,> 63.6,29,6.62,22.5,32.4,> 34.6,4.73,–
CCn1c(O)c(C(=O)Nc2cccs2)c(=O)n(CC)c1=S,56,–,25.9,–,37.3,29.5,47.8,59.8,–,42.2,44.4,–,–,63.2,56.8,–,36.8,41.7,33.4,32.9
NS(=O)(=O)c1ccc(NNc2c3ccccc3nc3c(C(=O)Nc4ccc(S(N)(=O)=O)cc4)cccc23)cc1,> 100,> 100,61,> 100,> 100,> 100,73.4,49.6,86.7,> 100,98.4,> 100,> 100,> 100,> 100,> 100,> 100,> 100,> 100,–
COc1ccccc1Nc1nc(N)nc(N)c1N,> 100,82.6,> 100,99.6,39.8,> 100,> 100,31.6,> 100,> 100,> 100,32.9,> 100,> 100,> 100,> 100,> 100,> 100,> 100,–
COC(=O)N1C=Cc2c(c(C)c3c([nH]c4ccccc43)c2C)C1C (centres undefined),35,–,30.4,–,25.6,34.9,36.5,43.3,32.1,26.5,44.6,–,–,–,35.7,–,28.8,26.4,47.8,29.3
COc1cc(Nc2nc(NS(=O)(=O)c3cc(C)c(Cl)cc3S)n[nH]2)cc(OC)c1OC,> 100,> 100,> 100,> 100,> 100,> 100,> 100,> 100,> 100,> 100,> 100,> 100,> 100,> 100,> 100,> 100,> 100,> 100,> 100,–
COC1=C(OC)C(=O)c2cc(C)c(=O)c(C)cc2C1=O,25.6,3.49,31,20.7,28.9,27.7,30.4,15.6,55.1,24.5,37.1,6.84,> 55.4,31.1,39.3,49.6,40.7,45.7,33,40
CCCCCCCCCCCCCCCCCCCCCCC(=O)N[C@H]1CCc2cc(OC)c(OC)c(OC)c2-c2ccc(SC)c(=O)cc21,> 100,–,53.2,–,69.3,> 100,> 100,> 100,65.9,> 100,> 100,–,–,> 100,8.23,–,40.7,71,58.2,37.1
N#CC(NNC(=O)c1ccccc1O)c1ccccc1O (centres undefined),83,–,> 100,–,> 100,16.9,> 100,> 100,–,> 100,> 100,–,–,> 100,25.1,–,–,> 100,> 100,> 100
